In ChEMBL document CHEMBL4308864, “Targeting tyrosine kinase: Development of acridone - pyrrole - oxindole hybrids against human breast cancer” (2019):

Columns and labels:
Format in all cases: functional
HCT-15 = experiment: Growth inhibition of human HCT15 cells assessed as cell growth at 10^-5 M incubated for 48 hrs by sulforhodamine B assay relative to control; settings: HCT-15, 48 h, read-out: Activity
SNB-19 = experiment: Growth inhibition of human SNB19 cells assessed as cell growth at 10^-5 M incubated for 48 hrs by sulforhodamine B assay relative to control; settings: SNB-19, 48 h, read-out: Activity
SF-268 = experiment: Growth inhibition of human SF268 cells assessed as cell growth at 10^-5 M incubated for 48 hrs by sulforhodamine B assay relative to control; settings: SF-268, 48 h, read-out: Activity
U-251 = experiment: Growth inhibition of human U251 cells assessed as cell growth at 10^-5 M incubated for 48 hrs by sulforhodamine B assay relative to control; settings: U-251, 48 h, read-out: Activity
UO-31 = experiment: Growth inhibition of human UO31 cells assessed as cell growth at 10^-5 M incubated for 48 hrs by sulforhodamine B assay relative to control; settings: UO-31, 48 h, read-out: Activity
Malme-3M = experiment: Growth inhibition of human MALME-3M cells assessed as cell growth at 10^-5 M incubated for 48 hrs by sulforhodamine B assay relative to control; settings: read-out: Activity
IGROV-1 = experiment: Growth inhibition of human IGROV1 cells assessed as cell growth at 10^-5 M incubated for 48 hrs by sulforhodamine B assay relative to control; settings: IGROV-1, 48 h, read-out: Activity
HOP-92 = experiment: Growth inhibition of human HOP92 cells assessed as cell growth at 10^-5 M incubated for 48 hrs by sulforhodamine B assay relative to control; settings: HOP-92, 48 h, read-out: Activity
A549 = experiment: Growth inhibition of human A549/ATCC cells assessed as cell growth at 10^-5 M incubated for 48 hrs by sulforhodamine B assay relative to control; settings: A549, 48 h, read-out: Activity
T47D = experiment: Growth inhibition of human T47D cells at 10^-5 M incubated for 48 hrs by sulforhodamine B assay relative to control; settings: read-out: GI
SK-MEL-28 = experiment: Growth inhibition of human SK-MEL-28 cells assessed as cell growth at 10^-5 M incubated for 48 hrs by sulforhodamine B assay relative to control; settings: SK-MEL-28, 48 h, read-out: Activity
ACHN = experiment: Growth inhibition of human ACHN cells assessed as cell growth at 10^-5 M incubated for 48 hrs by sulforhodamine B assay relative to control; settings: read-out: Activity
HCT-116 = experiment: Growth inhibition of human HCT116 cells assessed as cell growth at 10^-5 M incubated for 48 hrs by sulforhodamine B assay relative to control; settings: HCT-116, 48 h, read-out: Activity
HL-60(TB) = experiment: Growth inhibition of human HL-60(TB) cells assessed as cell growth at 10^-5 M incubated for 48 hrs by sulforhodamine B assay relative to control; settings: HL-60, 48 h, read-out: Activity
SK-MEL-2 = experiment: Growth inhibition of human SK-MEL-2 cells assessed as cell growth at 10^-5 M incubated for 48 hrs by sulforhodamine B assay relative to control; settings: SK-MEL-2, 48 h, read-out: Activity
SF-295 = experiment: Growth inhibition of human SF295 cells assessed as cell growth at 10^-5 M incubated for 48 hrs by sulforhodamine B assay relative to control; settings: SF-295, 48 h, read-out: Activity
RXF 393 = experiment: Growth inhibition of human RXF393 cells assessed as cell growth at 10^-5 M incubated for 48 hrs by sulforhodamine B assay relative to control; settings: RXF 393, 48 h, read-out: Activity
MDA-MB-468 = experiment: Growth inhibition of human MDA-MB-468 cells at 10^-5 M incubated for 48 hrs by sulforhodamine B assay relative to control; settings: MDA-MB-468, 48 h, read-out: GI
M14 = experiment: Growth inhibition of human M14 cells assessed as cell growth at 10^-5 M incubated for 48 hrs by sulforhodamine B assay relative to control; settings: M14, 48 h, read-out: Activity
EKVX = experiment: Growth inhibition of human EKVX cells assessed as cell growth at 10^-5 M incubated for 48 hrs by sulforhodamine B assay relative to control; settings: read-out: Activity
A498 = experiment: Growth inhibition of human A498 cells assessed as cell growth at 10^-5 M incubated for 48 hrs by sulforhodamine B assay relative to control; settings: A498, 48 h, read-out: Activity
SK-OV-3 = experiment: Growth inhibition of human SKOV3 cells assessed as cell growth at 10^-5 M incubated for 48 hrs by sulforhodamine B assay relative to control; settings: SK-OV-3, 48 h, read-out: Activity
MOLT-4 = experiment: Growth inhibition of human MOLT4 cells assessed as cell growth at 10^-5 M incubated for 48 hrs by sulforhodamine B assay relative to control; settings: MOLT-4, 48 h, read-out: Activity
NCI-H322M = experiment: Growth inhibition of human NCI-H322M cells assessed as cell growth at 10^-5 M incubated for 48 hrs by sulforhodamine B assay relative to control; settings: read-out: Activity
KM12 = experiment: Growth inhibition of human KM12 cells assessed as cell growth at 10^-5 M incubated for 48 hrs by sulforhodamine B assay relative to control; settings: KM12, 48 h, read-out: Activity
MCF7 = experiment: Growth inhibition of human MCF7 cells at 10^-5 M incubated for 48 hrs by sulforhodamine B assay relative to control; settings: MCF7, 48 h, read-out: GI
SW-620 = experiment: Growth inhibition of human SW620 cells assessed as cell growth at 10^-5 M incubated for 48 hrs by sulforhodamine B assay relative to control; settings: SW-620, 48 h, read-out: Activity
UACC-62 = experiment: Growth inhibition of human UACC62 cells assessed as cell growth at 10^-5 M incubated for 48 hrs by sulforhodamine B assay relative to control; settings: UACC-62, 48 h, read-out: Activity

| Compound | growth at 10 µM (HCT-15) [%] | growth at 10 µM (SNB-19) [%] | growth at 10 µM (SF-268) [%] | growth at 10 µM (U-251) [%] | growth at 10 µM (UO-31) [%] | growth at 10 µM (Malme-3M) [%] | growth at 10 µM (IGROV-1) [%] | growth at 10 µM (HOP-92) [%] | growth at 10 µM (A549) [%] | inhibition of growth at 10 µM (T47D) [%] | growth at 10 µM (SK-MEL-28) [%] | growth at 10 µM (ACHN) [%] | growth at 10 µM (HCT-116) [%] | growth at 10 µM (HL-60(TB)) [%] | growth at 10 µM (SK-MEL-2) [%] | growth at 10 µM (SF-295) [%] | growth at 10 µM (RXF 393) [%] | inhibition of growth at 10 µM (MDA-MB-468) [%] | growth at 10 µM (M14) [%] | growth at 10 µM (EKVX) [%] | also measured |
| --- | --- | --- | --- | --- | --- | --- | --- | --- | --- | --- | --- | --- | --- | --- | --- | --- | --- | --- | --- | --- | --- |
| O=C1Nc2ccccc2/C1=C/c1cccn1CCCCCn1c2ccccc2c(=O)c2ccccc21 | 28.9 | 95.3 | 83.3 | 93.4 | 49.3 | 84.5 | 73 | 65.5 | 81.4 | 98 | 88.1 | 55.1 | 69.8 | 47.6 | 84 | 93.1 | 89.2 | 62 | 73.3 | 71.8 | growth at 10 µM (A498): 108%; growth at 10 µM (SK-OV-3): 90.4%; growth at 10 µM (MOLT-4): 46%; growth at 10 µM (NCI-H322M): 98.8%; growth at 10 µM (KM12): 12.1%; inhibition of growth at 10 µM (MCF7): 99%; growth at 10 µM (SW-620): 100%; growth at 10 µM (UACC-62): 48.2% |
| O=C1/C(=C\c2cccn2CCCCn2c3ccccc3c(=O)c3ccccc32)c2ccccc2N1c1c(Cl)cccc1Cl | 83.5 | 98.2 | 94 | 96 | 80.8 | 106 | 110 | 71 | 93 | 33 | 111 | 99.5 | 98.4 | 106 | 105 | 98.8 | 97.5 | 28 | 96 | 88.8 | growth at 10 µM (A498): 116%; growth at 10 µM (SK-OV-3): 105%; growth at 10 µM (MOLT-4): 93.8%; growth at 10 µM (NCI-H322M): 103%; growth at 10 µM (KM12): 90.8%; inhibition of growth at 10 µM (MCF7): 68%; growth at 10 µM (SW-620): 105%; growth at 10 µM (UACC-62): 82.1% |
| O=C1/C(=C\c2cccn2CCCCCCn2c3ccccc3c(=O)c3ccccc32)c2ccccc2N1c1c(Cl)cccc1Cl | 67.1 | 99.2 | 94.7 | 97.6 | 70.2 | 102 | 90.6 | 75.3 | 96 | 57 | 108 | 97.7 | 103 | 103 | 98.8 | 99.2 | 97 | 56 | 98 | 89.5 | growth at 10 µM (A498): 110%; growth at 10 µM (SK-OV-3): 97.4%; growth at 10 µM (MOLT-4): 91.2%; growth at 10 µM (NCI-H322M): 98.6%; growth at 10 µM (KM12): 69.8%; inhibition of growth at 10 µM (MCF7): 85%; growth at 10 µM (SW-620): 108%; growth at 10 µM (UACC-62): 85.5% |
| O=C1/C(=C\c2cccn2CCCCCn2c3ccccc3c(=O)c3ccccc32)c2ccccc2N1c1c(Cl)cccc1Cl | 59.8 | 98.5 | 95.7 | 93 | 75.5 | 108 | 98.7 | 65.6 | 85.9 | 72 | 113 | 100 | 85.9 | 96.8 | 101 | 103 | 100 | 39 | 97.2 | 94.6 | growth at 10 µM (A498): 106%; growth at 10 µM (SK-OV-3): 95.6%; growth at 10 µM (MOLT-4): 87.6%; growth at 10 µM (NCI-H322M): 110%; growth at 10 µM (KM12): 69.4%; inhibition of growth at 10 µM (MCF7): 87%; growth at 10 µM (SW-620): 95.7%; growth at 10 µM (UACC-62): 82.6% |
| O=C1Nc2ccccc2/C1=C/c1cccn1CCCCCCn1c2ccccc2c(=O)c2ccccc21 | 23 | 97.1 | 87 | 92.4 | 56.2 | 90.7 | 88 | 56.4 | 87.8 | 100 | 111 | 89.7 | 70.4 | 54.5 | 86.2 | 97.2 | 99.2 | 92 | 78.2 | 65.3 | growth at 10 µM (A498): 103%; growth at 10 µM (SK-OV-3): 87.2%; growth at 10 µM (MOLT-4): 50.9%; growth at 10 µM (NCI-H322M): 97.9%; growth at 10 µM (KM12): 12.8%; inhibition of growth at 10 µM (MCF7): 99%; growth at 10 µM (SW-620): 102%; growth at 10 µM (UACC-62): 50.3% |
